Consider 7 compounds from patent US20250295798A1, “LIGAND-DRUG CONJUGATE OF EXATECAN ANALOGUE, AND MEDICAL USE THEREOF” (BeiGene Switzerland GmbH, priority 2022, published 2025).

For test [1], the system named is A375. In words: Compounds cellular killing in A375. The note with it: Homo sapiens, A375, 6 days, Cell Titer-Glo. In kind it is cell-based, human. How it is done: (§1) Seeding cells A375 (1E3/well) or Calu-6 (2E3/well) into 96-well plate (Greiner: 655090), 100 ul/well. Incubation at 37° C., 5% CO2, overnight.
(§2) Adding the fresh growth-medium containing the varying concentrations of compounds, 50 ul/well.
(§3) Incubation at 37° C., 5% CO2, 6 days.
(§4) The cell viability detected by Cell Titer-Glo (Promega, G7573). Add 70 µL/well of CellTiter-Glo® Reagent in each well.
(§5) Allow the plates to incubate at room temperature for 10 minutes to stabilize luminescent signal.
(§6) Analyze with Microplate Reader.
(§7) Seeding cells A375 ([…] or Calu-6 (2E3/well) into 96-well plate (Greiner: 655090), 100 ul/well. Incubation at 37° C., […], overnight.
For orientation: In ATP-based viability assays light output follows the ATP content of the culture.

For test [2], the system named is Calu-6. Nature of the test: Compounds cellular killing in Calu-6. In kind it is cell-based, human. The note with it: Homo sapiens, Calu-6, 6 days, Cell Titer-Glo. How it is done:
as §1, §2, §3, §4, §5, §6, §7

Regarding `CC[C@@]1(O)C(=O)OCc2c1cc1n(c2=O)Cc2c-1nc1cc(F)c(C)c3c1c2[C@@H](NC(=O)C[C@H](O)CC#N)CC3` [Example 2-20, (R)-4-cyano-N-((1S,9S)-9-ethyl-5-fluoro-9-hydroxy-4-methyl-10,13-dioxo-2,3,9,10,13,15-hexahydro-1H,12H-benzo[de]pyrano[3′,4′:6,7]indolizino[1,2-b]quinolin-1-yl)-3-hydroxybutanamide], in test [1] (A-375, […]), a half-maximal effect (EC50) was put at 18.5 nM and the Emax came to 98%. Also, in test [2] (Calu-6, […]), the response was half-maximal at 5.6 nM (EC50) and the maximum response (Emax) was 98.1%.

Regarding `CC[C@@]1(O)C(=O)OCc2c1cc1n(c2=O)Cc2c-1nc1cc(F)c(C)c3c1c2[C@@H](NC(=O)C(O)(C(F)(F)F)C(F)(F)F)CC3` [Example 2-21, N-((1S,9S)-9-ethyl-5-fluoro-9-hydroxy-4-methyl-10,13-dioxo-2,3,9,10,13,15-hexahydro-1H,12H-benzo[de]pyrano[3′,4′:6,7]indolizino[1,2-b]quinolin-1-yl)-3,3,3-trifluoro-2-hydroxy-2-(trifluoromethyl)propenamide], in test [1] (A-375, […]), the EC50 stood at 4.5 nM and the Emax was found to be 98.3%. In test [2] (Calu-6, […]), this compound returned an EC50 of 0.4 nM and an Emax of 96.7%.

For `CC[C@@]1(O)C(=O)OCc2c1cc1n(c2=O)Cc2c-1nc1cc(F)c(C)c3c1c2[C@@H](n1cc(CO)nn1)CC3` [Example 2-22, (1S,9S)-9-ethyl-5-fluoro-9-hydroxy-1-(4-(hydroxymethyl)-1H-1,2,3-triazol-1-yl)-4-methyl-1,2,3,9,12,15-hexahydro-10H,13H-benzo[de]pyrano[3′,4′:6,7]indolizino[1,2-b]quinoline-10,13-dione], in test [1] (A-375, […]), it took 10.4 nM to reach a half-maximal effect (EC50) and the Emax worked out at 97.7%. Also, in test [2] (Calu-6, […]), the response was half-maximal at 5.6 nM (EC50) and the maximal effect (Emax) is 98%.

For the compound `CC[C@@]1(O)C(=O)OCc2c1cc1n(c2=O)Cc2c-1nc1cc(F)c(C)c3c1c2[C@@H](n1cc(CCO)nn1)CC3` [Example 2-23, (1S,9S)-9-ethyl-5-fluoro-9-hydroxy-1-(4-(2-hydroxyethyl)-1H-1,2,3-triazol-1-yl)-4-methyl-1,2,3,9,12,15-hexahydro-10H,13H-benzo[de]pyrano[3′,4′:6,7]indolizino[1,2-b]quinoline-10,13-dione], in test [1] (A-375, […]), the concentration for a half-maximal effect (EC50) is 3.3 nM and the Emax is 99.9%. Besides, in test [2] (Calu-6, […]), a half-maximal response (EC50) required 1.9 nM and the Emax came out at 98.9%.

As to `CC[C@@]1(O)C(=O)OCc2c1cc1n(c2=O)Cc2c-1nc1cc(F)c(C)c3c1c2[C@@H](n1cc(CCCO)nn1)CC3` [Example 2-24, (1S,9S)-9-ethyl-5-fluoro-9-hydroxy-1-(4-(3-hydroxypropyl)-1H-1,2,3-triazol-1-yl)-4-methyl-1,2,3,9,12,15-hexahydro-10H,13H-benzo[de]pyrano[3′,4′:6,7]indolizino[1,2-b]quinoline-10,13-dione], in test [1] (A-375, […]), the EC50 stood at 7.1 nM and the Emax was 99.9%. In test [2] (Calu-6, […]), this compound came in with an EC50 of 3.2 nM and an Emax of 99.2%.

As for `CC[C@@]1(O)C(=O)OCc2c1cc1n(c2=O)Cc2c-1nc1cc(F)c(C)c3c1c2[C@@H](NC(=S)NCCO)CC3` [Example 2-25, 1-((1S,9S)-9-ethyl-5-fluoro-9-hydroxy-4-methyl-10,13-dioxo-2,3,9,10,13,15-hexahydro-1H,12H-benzo[de]pyrano[3′,4′:6,7]indolizino[1,2-b]quinolin-1-yl)-3-(2-hydroxyethyl)thiourea], the EC50 came out at 0.9 nM in test [1] (A-375, […]) and 0.1 nM in test [2] (Calu-6, […]). For the same compound, the Emax is 99.9% in test [1] (A-375, […]) and 98.2% in test [2] (Calu-6, […]).

Turning to `CC[C@@]1(O)C(=O)OCc2c1cc1n(c2=O)Cc2c-1nc1cc(F)c(C)c3c1c2[C@@H](NC(=O)NCCO)CC3` [Example 2-26, 1-((1S,9S)-9-ethyl-5-fluoro-9-hydroxy-4-methyl-10,13-dioxo-2,3,9,10,13,15-hexahydro-1H,12H-benzo[de]pyrano[3′,4′:6,7]indolizino[1,2-b]quinolin-1-yl)-3-(2-hydroxyethyl)urea], the EC50 in test [1] (A-375) was 18.6 nM; in test [2], 5.1 nM. The Emax came out at 97.7% in test [1] (A-375) and 98.4% in test [2] (Calu-6, […]).

Usually EC50 stands for the concentration that produces a half-maximal response. Lower therefore signals greater potency. A word on the Emax: it is the size of the effect at its maximum, as opposed to the concentration needed.
